Results published in patent US8929978B2, “Phototherapy devices and methods comprising optionally substituted terphenyl and quaterphenyl compounds” (Nitto Denko Corporation, priority 2011, dated 2015).

Tests used:
[1] = system: person suffering from actinic keratoses; assay: Photodynamic treatment of actinic keratoses lesions with red OLED light; conditions: 20% topical solution; illuminated about 14-18 hours after application with red OLED of Example 2
[2] = system: CHO-K1 (Chinese Hamster Ovarian Cancer, ATCC, CRL-2243) cell line; assay: Ex-vivo efficacy study with OLED Device A and ALA (MTT cell viability, microscopy)
[3] = system: person suffering from pathological myopia; assay: Verteporphin activated by red OLED light in pathological myopia; type: in vivo; conditions: about 6 mg/m^2 i.v.; retina illuminated about 15 minutes after start of infusion with red OLED
[4] = system: person suffering from presumed ocular histoplasmosis; conditions: in vivo, iv
[5] = system: person suffering from age-related macular degeneration; assay: Verteporphin activated by red OLED light in age-related macular degeneration; type: in vivo; conditions: about 6 mg/m^2 i.v.; retina illuminated about 15 minutes after start of infusion with red OLED

Cl.NCC(=O)CCC(=O)O [5-Aminolevulinic acid HCl]
number or severity of the lesions after treatment [1]: reduced

NCC(=O)CCC(=O)O [ALA, 5-aminolevulinic acid]
cell necrosis, 20 mW/cm^2 versus 10 mW/cm^2 output power ([2]; ALA 1 mM, irradiation time 25 min at 20 mW/cm^2 and 50 min at 10 mW/cm^2 (FIG. 17)): somewhat faster with 20 mW/cm^2 than 10 mW/cm^2
generation of PpIX (protoporphyrin IX) from ALA in cells ([2]; ALA 0.5, 1, 2 mM, about 16 hrs at 37° C., fluorescence emission at 635 nm): confirmed
cytotoxicity at 1000 µM ([2]; Cricetulus griseus, CHO-K1, light or radiation study, read-out: cells destroyed compared with the reference (MTT cell viability, light dosimetry)): ~90%
cell morphology under optical microscope after light irradiation ([2]; after about 25 J/cm^2 red light (630 nm) irradiation, leafy type cells transform to droplet type (FIG. 14)): significant and irreversible cell death

C=Cc1c(C)c2cc3nc(cc4[nH]c(cc5nc(cc1[nH]2)C(C)=C5CCC(=O)O)c(CCC(=O)OC)c4C)[C@@]1(C)C3=CC=C(C(=O)OC)[C@H]1C(=O)OC [Verteporphin]
patient's vision after treatment [3]: stabilized
patient's vision after treatment [4]: stabilized
patient's vision after treatment [5]: stabilized
